According to ChEMBL document CHEMBL3507680, “University of Dundee, Gates Library screen for HepG2 cell viability”:

Assay: Human HepG2 cell viability assay in 384 well format
Format: toxicity, cell-based
Design: dose 125 nL, time 70.5 hour; concentration not given beside the values
Conditions: HepG2 cells, read-out: Inhibition

CCN1CCC(CC(=O)NC[C@H]2CCc3ccccc3O2)CC1
cytotoxicity at 70.5 h: -8.77%

Cc1nc(-c2ccsc2)ccc1C(=O)NC(C)CN1CCOCC1 (configuration not stated)
cytotoxicity at 70.5 h: -3.57%

CC(C)(C)c1ncc(C(=O)NC(C(N)=O)c2ccccc2)s1 (configuration not stated)
cytotoxicity at 70.5 h: 15.8%

Cc1ncc(-c2ccnc(SCCN)n2)c(-c2ccco2)n1
cytotoxicity at 70.5 h: 21.8%

Cc1cnc2n(c1=O)CC(C(=O)Nc1ccon1)CS2 (configuration not stated)
cytotoxicity at 70.5 h: -13.7%

c1cnc(N2CCCn3c(nnc3Cn3cccn3)C2)nc1
cytotoxicity at 70.5 h: 1.91%

CN(C)C1(CNc2ncc(Br)cn2)CCOCC1
cytotoxicity at 70.5 h: -10.2%

CCOCC(=O)N1CCC(Cc2nnc(SC)n2C)CC1
cytotoxicity at 70.5 h: -3.88%

CN(C)C(=O)c1csc(-c2ccoc2)n1
cytotoxicity at 70.5 h: 27.9%

CC(NC(=O)c1ccsc1)c1ccc2c(c1)NC(=O)CO2 (configuration not stated)
cytotoxicity at 70.5 h: -3.38%

Cc1cnc(N2C(=O)CSC2c2cccs2)s1 (configuration not stated)
cytotoxicity at 70.5 h: 28.2%

O=C1CCC(=O)N1c1nn(Cc2ccccc2Cl)cc1Cl
cytotoxicity at 70.5 h: -0.484%

Cc1nccn1CCN(C)C(=O)c1cn(-c2ccccc2)nn1
cytotoxicity at 70.5 h: 33.5%

Cc1ccc(CN2Cc3nnn(C)c3C(COCc3ccccn3)C2)s1 (configuration not stated)
cytotoxicity at 70.5 h: -0.991%

Cc1cc(NCCN)nc2ccccc12
cytotoxicity at 70.5 h: -11.3%

COc1ccc(C)cc1CNCc1ccc(-n2nc(C)cc2C)nc1
cytotoxicity at 70.5 h: 5.93%

Cc1noc(C)c1-c1cc(C2CCNCC2)ccn1
cytotoxicity at 70.5 h: 3.08%

CCNc1ccc(-c2ccnc3c2ccn3C)nn1
cytotoxicity at 70.5 h: -5.15%

Cc1nccn1CCCN1CCCC(c2nccn2C)C1 (configuration not stated)
cytotoxicity at 70.5 h: 21.3%

COc1ccc(OCCN(C)S(=O)(=O)c2cnn(C)c2)cc1
cytotoxicity at 70.5 h: -6.09%

CN(C)C(=O)N1CCN(C(=O)c2ccn3cncc3c2)CC1
cytotoxicity at 70.5 h: 0.173%

CCn1nc(C)c(CCNC(=O)C2CCCN(C(=O)N(C)C)C2)c1C (configuration not stated)
cytotoxicity at 70.5 h: -11.9%

CCCS(=O)(=O)N1CC[C@H]2OCC[C@@]2(c2nnc(C)o2)C1
cytotoxicity at 70.5 h: 8.91%

Cn1cc(Cl)cc1C(=O)N1CCCN(Cc2ccccc2)CC1
cytotoxicity at 70.5 h: -8.08%

Cn1nnc2c(N3CC(C(=O)NCc4cccs4)C3)ncnc21
cytotoxicity at 70.5 h: -1.73%

Cc1cc(NC(=O)CN2CCCC2c2noc(C(C)C)n2)n(C)n1 (configuration not stated)
cytotoxicity at 70.5 h: -7.61%

Cc1cccc(CSc2ncc(Br)c(C(=O)O)n2)c1
cytotoxicity at 70.5 h: -8.53%

COCCN1CCC(CNC(=O)C2(S(C)(=O)=O)CCCC2)CC1
cytotoxicity at 70.5 h: -3.79%

CCn1cncc1C1CC(=O)Nc2c1c(C)nn2C (configuration not stated)
cytotoxicity at 70.5 h: -4.74%

Cc1ccc(CNC(=O)CN(CCC(N)=O)c2ccc(F)cc2)cc1
cytotoxicity at 70.5 h: -3.51%

COCc1ccc(C(=O)N2CCN(CC(C)O)CC2)cc1 (configuration not stated)
cytotoxicity at 70.5 h: -3.37%

O=c1[nH]nc2n1CCN(S(=O)(=O)c1ccccc1Cl)C2
cytotoxicity at 70.5 h: -7.03%

CCN(C(=O)COC)C(c1cccnc1)c1ccc2c(c1)CCO2 (configuration not stated)
cytotoxicity at 70.5 h: -2.44%

CN1C[C@H]2CNC[C@@]2(C(=O)NC2CCN(c3ncccc3C#N)CC2)C1
cytotoxicity at 70.5 h: 1.46%

Cn1ccnc1CNC(=O)c1cncc(C2CCNCC2)n1
cytotoxicity at 70.5 h: -5.18%

Clc1ccccc1C1CN(CCc2ccncc2)CCO1 (configuration not stated)
cytotoxicity at 70.5 h: -6.68%

Cc1nc(CN2CCCC2Cn2cncn2)no1 (configuration not stated)
cytotoxicity at 70.5 h: 13.1%

Cc1cc(C)c(CNC(=O)N2CCNC(=O)C2)c(=O)[nH]1
cytotoxicity at 70.5 h: -4.49%

CC(C)N(CC(=O)Nc1cccc(C(=O)N(C)C)c1)C1CC1
cytotoxicity at 70.5 h: 7.53%

CC(C)CC(=O)N1CCN(C(=O)N(C)C)CC2(CC(=O)N(C)C2)C1 (configuration not stated)
cytotoxicity at 70.5 h: 0.114%

CC(C)(C)c1noc(CCCC(=O)N2CCNC(=O)C2)n1
cytotoxicity at 70.5 h: -16.6%

O=C(NCCNC(=O)c1scnc1Cl)c1ccccc1Cl
cytotoxicity at 70.5 h: -8.93%

CN(Cc1nccn1C)S(=O)(=O)Cc1cccc(C#N)c1
cytotoxicity at 70.5 h: -12.6%

Cc1nc2c(c(NC(C)C)n1)CCN(C(=O)CCO)CC2
cytotoxicity at 70.5 h: -14.4%

CNC(=O)CN1CCOC(c2cccc(N)n2)C1 (configuration not stated)
cytotoxicity at 70.5 h: -1.41%

Cc1ccc(NC(=O)c2nc(N3CCCCC3)ncc2Cl)cc1I
cytotoxicity at 70.5 h: -7.45%

Cc1nc(C)c(CC(=O)Nc2nnc(C)s2)c(=O)[nH]1
cytotoxicity at 70.5 h: 0.383%

CN(C(=O)COc1ccc(F)cc1)[C@@H]1CC[C@@H](n2ccnc2)[C@@H]1O
cytotoxicity at 70.5 h: -4.21%

CCC(C)NC(=O)c1nnn(-c2cccc3c2CCN(C)C3)c1C (configuration not stated)
cytotoxicity at 70.5 h: 2.37%

O=C(Nc1cccc(OCC(F)F)n1)c1ccncc1
cytotoxicity at 70.5 h: -8.53%

COc1ccc(CN2C[C@H](OCC3CCOCC3)[C@H]3COC[C@H]32)cc1
cytotoxicity at 70.5 h: -9.69%

Cc1nn(C)c(Cl)c1C1CCCN1C(=O)c1cnc[nH]1 (configuration not stated)
cytotoxicity at 70.5 h: -12.8%

CN(Cc1cccc(OCCO)c1)Cc1cccc2ncccc12
cytotoxicity at 70.5 h: 19.3%

O=C(NCC1CCOCC1)c1cc(-c2ccc3c(c2)CCO3)n[nH]1
cytotoxicity at 70.5 h: 17.3%

Oc1ccccc1CN1CCC(n2cc(-c3ccc(F)cc3)nn2)CC1
cytotoxicity at 70.5 h: -4%

Cc1cccc(C(=O)N2C[C@@H]3OCCN(CCN4CCCC4)[C@@H]3C2)n1
cytotoxicity at 70.5 h: -7.28%

C=C(C)COc1cccc(C(=O)N(CC)Cc2nc(COC)no2)c1
cytotoxicity at 70.5 h: -7.82%

CCCOc1cccc(-c2nc3c([nH]2)CCNC3)c1
cytotoxicity at 70.5 h: 5.31%

Cc1ccc(-c2noc(CN3CCCC(Cn4cncn4)C3)n2)cc1 (configuration not stated)
cytotoxicity at 70.5 h: -1.78%

CC(C)c1noc(C(C)S(=O)(=O)CC(=O)N2CCCC2)n1 (configuration not stated)
cytotoxicity at 70.5 h: 17.4%

CC(C1CCN(Cc2cnn(C)c2C2CC2)CC1)N1CCCC1 (configuration not stated)
cytotoxicity at 70.5 h: -7.31%

O=C(c1cncnc1)N1C[C@@H]2CC[C@H](Oc3cccc(F)c3)[C@@H]2C1
cytotoxicity at 70.5 h: -8.85%

CCc1cc(C(F)(F)F)n2nc(C3CCCN3C3CCSCC3)cc2n1 (configuration not stated)
cytotoxicity at 70.5 h: -2.16%

NC(=O)C(CNC(=O)Cc1ccsc1)Cc1ccc(F)cc1 (configuration not stated)
cytotoxicity at 70.5 h: -3.39%

NC(=O)COc1ccc(CNCc2ccc(Cl)c(F)c2)cc1
cytotoxicity at 70.5 h: -0.573%

CCCc1cc(CN(C)C2CSCCSC2)n[nH]1
cytotoxicity at 70.5 h: -6.5%

CN1CC2(CCN(C(=O)c3ccc(-n4cnnc4)cc3Cl)CC2)OC1=O
cytotoxicity at 70.5 h: -4.9%

CNC(=O)C1CCCN(C(=O)NCCC2Cc3ccccc3C2)C1 (configuration not stated)
cytotoxicity at 70.5 h: -1.76%

CC1(C(=O)N2CCOCC2)CN(Cc2cccnc2)CCO1 (configuration not stated)
cytotoxicity at 70.5 h: -8.77%

CCC(=O)N1CCC2(CC1)CC(CC(=O)N(C)C)c1ccc(F)cc12 (configuration not stated)
cytotoxicity at 70.5 h: -1.89%

c1cncc(O[C@H]2COCCN(Cc3c[nH]c4ccccc34)C2)c1
cytotoxicity at 70.5 h: 4.1%

CN(CC(N)=O)Cc1csc(-c2ccc(F)cc2)n1
cytotoxicity at 70.5 h: -0.0734%

Cc1ccc(CSc2ncc(Br)c(C(=O)O)n2)cc1
cytotoxicity at 70.5 h: 0.214%

CCCc1nc(CNCC2CCCN2c2cccnn2)no1 (configuration not stated)
cytotoxicity at 70.5 h: 22.6%

CCS(=O)(=O)N1C[C@H]2CN(CC3CC3)C(=O)[C@H]2C1
cytotoxicity at 70.5 h: -0.251%

COc1cccc2c1OCCCN(Cc1ccc(C(N)=O)c(=O)[nH]1)C2
cytotoxicity at 70.5 h: -8.27%

CCOC1COC2(CCN(Cc3cccc(F)c3)CC2)C1 (configuration not stated)
cytotoxicity at 70.5 h: -12%

CC(C)n1cnnc1CN(C)Cc1cnc(-c2cccs2)nc1
cytotoxicity at 70.5 h: 0.122%

CN(Cc1ccoc1)C(=O)C1(Oc2ccc(Cl)cc2)CCNCC1
cytotoxicity at 70.5 h: -6.31%

CCN(CC1CCOC1)C(=O)c1cccnc1N1CCOCC1 (configuration not stated)
cytotoxicity at 70.5 h: 0.841%

COc1ccccc1C1CNC(=O)c2nc(-c3ncc[nH]3)[nH]c2C1 (configuration not stated)
cytotoxicity at 70.5 h: -10.6%

NCCCn1nc(C(F)(F)F)c2c1CCC2
cytotoxicity at 70.5 h: -7.21%

NC(=O)CN1CC2(CCC1=O)CCN(Cc1ccc(F)cc1Cl)CC2
cytotoxicity at 70.5 h: -1.9%

CCCc1nc(C)c(C(=O)NCCN2CCCCC2)s1
cytotoxicity at 70.5 h: -1.37%

COc1ccc2c(c1)C(=O)N(C)C1(CCN(CC=C(C)C)CC1)N2
cytotoxicity at 70.5 h: -2.27%

Cc1cccc(-n2nnnc2C(C)(C)Nc2ccccc2C)c1
cytotoxicity at 70.5 h: 0.855%

CN(CCNC(=O)c1cccnc1)S(C)(=O)=O
cytotoxicity at 70.5 h: -5.32%

Cc1nccn1C1CCCN(C(=O)c2ccc(N3CCCC3)nn2)C1 (configuration not stated)
cytotoxicity at 70.5 h: -4.33%

Cc1cnc(C(=O)N2CCC(C(=O)c3cc(F)ccc3F)CC2)cn1
cytotoxicity at 70.5 h: -5.07%

Cc1cnn(CCNCc2c(C)nn(-c3ccccc3)c2C)c1
cytotoxicity at 70.5 h: 2.45%

Cc1ccc2c(n1)N(CCn1cccn1)CCN(CC1CC1)C2
cytotoxicity at 70.5 h: -3.95%

Cc1ccccc1-c1cncc(C2CCN(C(C)C)CC2)n1
cytotoxicity at 70.5 h: -22.4%

COc1ccccc1NCC(=O)NCc1scnc1C
cytotoxicity at 70.5 h: 13.6%

Cc1c(C)n(-c2ccccn2)c2nc3c(c(N)c12)CCCC3
cytotoxicity at 70.5 h: -9.17%

Cc1ccc(C)c(CNC(=O)NC(C)(C(=O)O)c2ccco2)c1 (configuration not stated)
cytotoxicity at 70.5 h: 2.89%

CNC(=O)C1CN(c2ccnc(C)n2)CCN(C2CCOCC2)C1 (configuration not stated)
cytotoxicity at 70.5 h: -1.96%

Cc1ccc2c(c1)C1(CC2)CCN(CC(=O)O)CC1
cytotoxicity at 70.5 h: 5.44%

O=C(C1CC1)N1CCC2(CCCN2Cc2ccc(F)cc2)CC1
cytotoxicity at 70.5 h: 5.51%

O=C(C[S+]([O-])Cc1c(Cl)cccc1Cl)N1CCc2sccc2C1 (configuration not stated)
cytotoxicity at 70.5 h: -7.37%

CC(C)NC(=O)Nc1ccccc1CN1CCOCC1
cytotoxicity at 70.5 h: -5.87%

CN1CCC(N2CCOC[C@H]2c2nc(-c3ccncc3)c[nH]2)CC1
cytotoxicity at 70.5 h: 3.14%

Cc1ccnn1C(C)C(=O)Nc1cc(-c2ccncc2)[nH]n1 (configuration not stated)
cytotoxicity at 70.5 h: -6.01%

Cc1nc(C)c(C(=O)N2CCCN(Cc3cnn(C)c3)CC2)s1
cytotoxicity at 70.5 h: -3.11%

Cc1c(C(=O)NC(C)C(C)C)nnn1-c1cccc2c1CCN(C)C2 (configuration not stated)
cytotoxicity at 70.5 h: 5.93%

CC(C)Oc1cccc(CNC(=O)NC(C)(C(=O)O)c2ccco2)c1 (configuration not stated)
cytotoxicity at 70.5 h: -0.448%

Cn1ccnc1Sc1ccc(N)cn1
cytotoxicity at 70.5 h: 0.97%

CS(=O)(=O)NCc1nnc2n1CCN(CC1CC1)C2
cytotoxicity at 70.5 h: -6.05%

O=C1NCC2(CCCN(Cc3ccc(Cl)s3)C2)Oc2ccccc21 (configuration not stated)
cytotoxicity at 70.5 h: -12.5%

Fc1cnccc1CN1CCC2(CCNCC2)C1
cytotoxicity at 70.5 h: -10.4%

CCS(=O)(=O)NCc1nc(C)cc(N2CCCCC2)n1
cytotoxicity at 70.5 h: -7.45%

CC(NC(=O)N1CCS(=O)(=O)CC1)c1c(F)cccc1Cl (configuration not stated)
cytotoxicity at 70.5 h: -4.16%

N[C@H]1CN(S(=O)(=O)Cc2ccccc2)C[C@@H]1C1CC1
cytotoxicity at 70.5 h: -6.71%

Cn1cc(S(=O)(=O)N2CCCC(Cn3cncn3)C2)cn1 (configuration not stated)
cytotoxicity at 70.5 h: -2.09%

Cc1nc(Nc2cnccn2)cc(C2CN(C(C)C)C2)n1
cytotoxicity at 70.5 h: -6.87%

COc1cccc(-n2nnc(C(=O)N3CCCC(C)C3)c2C)c1 (configuration not stated)
cytotoxicity at 70.5 h: -10.2%

CC(C)(C)SCC(=O)NCCc1csc(N2CCCC2)n1
cytotoxicity at 70.5 h: -6.06%

CN(Cc1ccsc1)C(=O)c1ccc2c(c1)NC(=O)CO2
cytotoxicity at 70.5 h: -7.5%
